Assay results: the supplement of paper PMC10307832

Tests used:
YM155 = compound: COCC[n+]1c2c(n(Cc3cnccn3)c1C)C(=O)c1ccccc1C2=O [YM155]; assay: relative viability (nuclei count vs DMSO), 5 days (fraction); higher = more cells survive
Summary of the method: (§1)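 Five library-drug doses spaced by √10 were pinned onto vehicle-anchored 1536-well plates of lung cancer cell lines that had been kept overnight at 37 °C. Cells went 5 days without medium change, then were fixed, permeabilised and Hoechst-stained together, imaged at 4× and counted by MetaXpress. Viability is the ratio of treated-well to vehicle-well nuclei, taken as a median over plates. Plates required control CV below 25% and at least one doubling.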

Quizartinib = compound: CC(C)(C)c1cc(NC(=O)Nc2ccc(-c3cn4c(n3)sc3cc(OCCN5CCOCC5)ccc34)cc2)no1 [Quizartinib]; assay: as above
Summary of the method: as §1

NCI-H1648
relative viability (YM155; 0.002 µM): 0.748 | relative viability (YM155; 0.006325 µM): 1.11 | relative viability (YM155; 0.02 µM): 0.829 | relative viability (YM155; 0.06325 µM): 0.995 | relative viability (Quizartinib; 0.003162 µM): 0.756 | relative viability (Quizartinib; 0.01 µM): 0.81 | relative viability (Quizartinib; 0.03162 µM): 0.886 | relative viability (Quizartinib; 0.1 µM): 1.29
